Experimental data from ChEMBL document CHEMBL1144471, “Structure-activity relationships of 2,N(6),5'-substituted adenosine derivatives with potent activity at the A2B adenosine receptor” (J Med Chem, 2007).

Assays:
[1] = target: T1, Adenosine receptor A3 (Homo sapiens) (UniProt P0DMS8); assay: Maximum efficacy at human recombinant adenosine A3 receptor expressed in CHO cells assessed as inhibition of cAMP production at 10 uM relative to NECA; format: functional, cell-based
T1 sequence (whole entry): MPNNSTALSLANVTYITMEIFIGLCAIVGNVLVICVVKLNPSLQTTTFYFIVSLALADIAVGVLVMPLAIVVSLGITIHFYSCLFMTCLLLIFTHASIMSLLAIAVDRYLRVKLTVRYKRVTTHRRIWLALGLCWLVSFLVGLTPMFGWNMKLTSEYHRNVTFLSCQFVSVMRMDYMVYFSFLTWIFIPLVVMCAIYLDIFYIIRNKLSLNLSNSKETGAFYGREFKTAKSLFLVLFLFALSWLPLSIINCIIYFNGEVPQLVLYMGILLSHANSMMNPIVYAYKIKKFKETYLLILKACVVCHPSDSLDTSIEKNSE

Adenosine receptor A3 = target: T2, Adenosine receptor A3 (Homo sapiens, UniProt P0DMS8); assay: Displacement of [125I]I-AB-MECA from human adenosine A3 receptor expressed in CHO cells; format: cell-based
T2 sequence (P0DMS8 whole entry): T1 sequence (whole entry)

Adenosine receptor A2a [2] = target: T3, Adenosine receptor A2a (Homo sapiens, UniProt P29274); assay: biochemical
Adenosine receptor A1 = target: T4, Adenosine receptor A1 (Homo sapiens, UniProt P30542); assay: Displacement of […] from human adenosine A1 receptor expressed in CHO cells; format: cell-based
T4 sequence (P30542 whole entry): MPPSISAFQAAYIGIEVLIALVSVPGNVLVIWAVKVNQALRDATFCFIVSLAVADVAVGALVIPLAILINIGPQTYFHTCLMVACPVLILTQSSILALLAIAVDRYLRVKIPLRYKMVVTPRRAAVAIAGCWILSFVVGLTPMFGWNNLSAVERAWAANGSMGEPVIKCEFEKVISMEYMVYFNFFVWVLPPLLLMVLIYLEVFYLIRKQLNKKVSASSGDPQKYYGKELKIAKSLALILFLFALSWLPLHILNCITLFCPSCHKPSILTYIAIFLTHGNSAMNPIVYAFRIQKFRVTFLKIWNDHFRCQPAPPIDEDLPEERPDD

[3] = target: T5, Adenosine receptor A2b (Homo sapiens) (UniProt P29275); assay: Agonist activity at human adenosine A2B receptor expressed in CHO cells assessed as stimulation of cAMP production at 10 uM; format: functional, cell-based
T5 sequence (whole entry): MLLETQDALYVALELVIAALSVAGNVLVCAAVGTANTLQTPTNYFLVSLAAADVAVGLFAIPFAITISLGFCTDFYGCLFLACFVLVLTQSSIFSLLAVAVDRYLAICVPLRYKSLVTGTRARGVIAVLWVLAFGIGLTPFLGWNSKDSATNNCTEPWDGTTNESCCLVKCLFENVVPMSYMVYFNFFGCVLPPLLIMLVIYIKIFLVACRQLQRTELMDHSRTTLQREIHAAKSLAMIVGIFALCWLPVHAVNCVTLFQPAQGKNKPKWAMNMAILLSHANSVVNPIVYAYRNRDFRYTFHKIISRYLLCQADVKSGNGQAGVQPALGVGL

Adenosine receptor A2b = target: T6, Adenosine receptor A2b (Homo sapiens, UniProt P29275); assay: Agonist activity at human adenosine A2B receptor expressed in CHO cells assessed as stimulation of cAMP production
T6 sequence (P29275 whole entry): T5 sequence (whole entry)

[4] = target: T7, Adenosine receptor A1 (Homo sapiens) (UniProt P30542); assay: Displacement of […] from human adenosine A1 receptor expressed in CHO cells at 10 uM; format: cell-based
T7 sequence (whole entry): T4 sequence (P30542 whole entry)

Adenosine receptor A2a [5] = target: T3, Adenosine receptor A2a; assay: Displacement of [3H]CGS-21680 from human adenosine A2A receptor expressed in CHO cells at 10 uM; format: cell-based

T3 sequence (P29274 whole entry): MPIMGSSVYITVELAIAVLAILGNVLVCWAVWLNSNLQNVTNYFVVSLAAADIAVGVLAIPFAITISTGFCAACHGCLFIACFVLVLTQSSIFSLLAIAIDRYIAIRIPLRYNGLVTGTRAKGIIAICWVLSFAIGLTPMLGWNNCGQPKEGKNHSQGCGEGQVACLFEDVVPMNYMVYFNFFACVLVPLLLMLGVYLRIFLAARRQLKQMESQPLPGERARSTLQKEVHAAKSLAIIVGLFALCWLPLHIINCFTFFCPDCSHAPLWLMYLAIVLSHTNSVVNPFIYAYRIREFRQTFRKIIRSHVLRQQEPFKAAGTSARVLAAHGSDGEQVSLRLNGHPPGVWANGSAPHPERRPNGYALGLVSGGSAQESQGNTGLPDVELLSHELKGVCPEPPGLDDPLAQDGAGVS

Compound	Efficacy [1] [%]	Ki (Adenosine receptor A3) [nM]	Ki (Adenosine receptor A2a [2]) [nM]	Ki (Adenosine receptor A1) [nM]	Activity [3] [%]	EC50 (Adenosine receptor A2b) [nM]	inhibition [4] [%]	inhibition (Adenosine receptor A2a [5]) [%]
Nc1nc(OCCc2ccsc2)nc2c1ncn2[C@@H]1O[C@H](CO)[C@@H](O)[C@H]1O	62	101	13.3	280	9			
CCOc1nc(N)c2ncn([C@@H]3O[C@H](CO)[C@@H](O)[C@H]3O)c2n1	99	568	360	2640	-1			
Nc1nc(OCCc2ccccc2)nc2c1ncn2[C@@H]1O[C@H](CO)[C@@H](O)[C@H]1O	71	54.2	9.3	221		3490		
CCNC(=O)[C@H]1O[C@@H](n2cnc3c(NC(=N)N)ncnc32)[C@H](O)[C@@H]1O	100							
Nc1nc(OCCn2cnc3ccccc32)nc2c1ncn2[C@@H]1O[C@H](CO)[C@@H](O)[C@H]1O	3	2070	3870		0		18	
CCNc1nc(OCCc2c[nH]c3ccccc23)nc2c1ncn2[C@@H]1O[C@H](CO)[C@@H](O)[C@H]1O	54	30		640		3270		40
Nc1nc(OCCCCc2ccccc2)nc2c1ncn2[C@@H]1O[C@H](CO)[C@@H](O)[C@H]1O	37	352	519	2060	3			
Nc1nc(OCCc2c[nH]c3c(Br)cccc23)nc2c1ncn2[C@@H]1O[C@H](CO)[C@@H](O)[C@H]1O	-8	142	252	210	43			
Nc1nc(OCCc2c[nH]c3ccc(F)cc23)nc2c1ncn2[C@@H]1O[C@H](CO)[C@@H](O)[C@H]1O	-1	490	370	150		767		
C[C@@H](CCOc1nc(N)c2ncn([C@@H]3O[C@H](CO)[C@@H](O)[C@H]3O)c2n1)c1ccccc1	18	312	413	1560	13			
Cc1ccc(S(=O)(=O)n2cc(CCOc3nc(N)c4ncn([C@@H]5O[C@H](CO)[C@@H](O)[C@H]5O)c4n3)c3ccccc32)cc1	0	1340	2670		43		39	
Nc1nc(OCCc2c[nH]c3ccc(Cl)cc23)nc2c1ncn2[C@@H]1O[C@H](CO)[C@@H](O)[C@H]1O	-4	296	390	130		2180		
Nc1nc(OCCc2ccc(F)cc2)nc2c1ncn2[C@@H]1O[C@H](CO)[C@@H](O)[C@H]1O	74	112	56.8	467	11			
Nc1nc(OCCc2c[nH]c3cccc(Br)c23)nc2c1ncn2[C@@H]1O[C@H](CO)[C@@H](O)[C@H]1O	-5	260	39.7	443	16			
Nc1nc(OCCc2c[nH]c3ccccc23)nc2c1ncn2[C@@H]1O[C@H](CO)[C@@H](O)[C@H]1O	17	232	45	148		299		
Nc1nc(OCCC2CCCCC2)nc2c1ncn2[C@@H]1O[C@H](CO)[C@@H](O)[C@H]1O	52	578	579		36		36	
Nc1nc(OCCc2c[nH]c3ccc(O)cc23)nc2c1ncn2[C@@H]1O[C@H](CO)[C@@H](O)[C@H]1O	24	120	450	310		896		
Nc1nc(OCCc2ccc3ccccc3c2)nc2c1ncn2[C@@H]1O[C@H](CO)[C@@H](O)[C@H]1O	45	130	16.1	141		1440		

Compound	Efficacy [1] [%]	Ki (Adenosine receptor A3) [nM]	Ki (Adenosine receptor A2a [2]) [nM]	Ki (Adenosine receptor A1) [nM]	Activity [3] [%]	EC50 (Adenosine receptor A2b) [nM]	inhibition [4] [%]	inhibition (Adenosine receptor A2a [5]) [%]
N=C(N)Nc1nc(OCCc2c[nH]c3ccccc23)nc2c1ncn2[C@@H]1O[C@H](CO)[C@@H](O)[C@H]1O	58	90	277	73.6	40			
Nc1nc(OCCc2cc3ccccc3[nH]2)nc2c1ncn2[C@@H]1O[C@H](CO)[C@@H](O)[C@H]1O	37	513	373	197	49			
COc1ccc2[nH]cc(CCOc3nc(N)c4ncn([C@@H]5O[C@H](CO)[C@@H](O)[C@H]5O)c4n3)c2c1	-3	360	1400	1820		1250		
Nc1nc(OCCc2ccccc2F)nc2c1ncn2[C@@H]1O[C@H](CO)[C@@H](O)[C@H]1O	45	77.8	58.1	331	12			
Nc1nc(OCCc2c[nH]c3cc(Cl)ccc23)nc2c1ncn2[C@@H]1O[C@H](CO)[C@@H](O)[C@H]1O	2		29.3			216		
COc1ccc2[nH]c(C)c(CCOc3nc(N)c4ncn([C@@H]5O[C@H](CO)[C@@H](O)[C@H]5O)c4n3)c2c1	13	599		579	48			64
Nc1nc(OCCc2c[nH]c3ccc(Br)cc23)nc2c1ncn2[C@@H]1O[C@H](CO)[C@@H](O)[C@H]1O	1	234	502	358		365		
Nc1nc(OCCc2cc[nH]c2)nc2c1ncn2[C@@H]1O[C@H](CO)[C@@H](O)[C@H]1O	75	104	95	218		2580		
Nc1nc(OCCCc2ccccc2)nc2c1ncn2[C@@H]1O[C@H](CO)[C@@H](O)[C@H]1O	42	66	500	960	29			
Nc1nc(OCCc2c[nH]c3ccc(I)cc23)nc2c1ncn2[C@@H]1O[C@H](CO)[C@@H](O)[C@H]1O	-5	110	900	350		1870		
Nc1nc(OCCc2cccs2)nc2c1ncn2[C@@H]1O[C@H](CO)[C@@H](O)[C@H]1O	80	93.3	10.9	174		1780		
Nc1nc(OCCn2nnc3ccccc32)nc2c1ncn2[C@@H]1O[C@H](CO)[C@@H](O)[C@H]1O	13	1920			0		41	46
Cc1ccc(S(=O)(=O)n2cc(CCOc3nc(N)c4ncn([C@@H]5O[C@H](CO)[C@@H](O)[C@H]5O)c4n3)c3cc(Br)ccc32)cc1	-1	8730			30		38	54
Nc1nc(OCCc2cccc(F)c2)nc2c1ncn2[C@@H]1O[C@H](CO)[C@@H](O)[C@H]1O	50	119	69.3	312	64			
Cc1ccc(S(=O)(=O)n2cc(CCOc3nc(NC(=N)N)c4ncn([C@@H]5O[C@H](CO)[C@@H](O)[C@H]5O)c4n3)c3ccccc32)cc1	24	457	344		42		52	
Cc1ccc(S(=O)(=O)n2c(CCOc3nc(N)c4ncn([C@@H]5O[C@H](CO)[C@@H](O)[C@H]5O)c4n3)cc3ccccc32)cc1	30	622	2570		32		47	
CCNC(=O)[C@H]1O[C@@H](n2cnc3c(N)nc(OCCc4c[nH]c5ccccc45)nc32)[C@H](O)[C@@H]1O	102	110	250	190		989		
